Laboratory results from US20240383904A1, “HETEROCYCLIC COMPOUNDS” (Hoffmann-La Roche Inc., priority 2021, published 2024).

target: T1, MAGL (Homo sapiens, UniProt Q99685); experiment: 2-AG assay: MAGL inhibitory activity by hydrolysis of 2-arachidonoylglycerol to arachidonic acid, followed by mass spectrometry; format: biochemical; conditions: 15 min preincubation, 30 min reaction at RT, 8 μM 2-arachidonoylglycerol
T1 sequence (Q99685 1-303): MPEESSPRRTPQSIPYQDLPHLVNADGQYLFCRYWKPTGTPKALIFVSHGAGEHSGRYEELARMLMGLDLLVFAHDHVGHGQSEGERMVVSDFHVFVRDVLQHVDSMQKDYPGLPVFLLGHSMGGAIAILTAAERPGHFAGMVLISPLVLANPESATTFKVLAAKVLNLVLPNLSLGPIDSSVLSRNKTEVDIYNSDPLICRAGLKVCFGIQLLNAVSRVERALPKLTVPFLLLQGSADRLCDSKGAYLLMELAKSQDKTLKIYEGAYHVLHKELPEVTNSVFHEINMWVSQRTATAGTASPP

Compared with `O=C1CCC2(CN(C(=O)N3CC4(CC(Cc5ccc6ncnn6c5)C4)C3)C2)N1` [Example 320, 2-[6-([1,2,4]triazolo[1,5-a]pyridin-6-ylmethyl)-2-azaspiro[3.3]heptane-2-carbonyl]-2,5-diazaspiro[3.4]octan-6-one], `O=C1CCC2(CN(C(=O)N3CC4(CC(Cc5ccc6[nH]ncc6n5)C4)C3)C2)N1` [Example 321, 2-[6-(1H-pyrazolo[4,3-b]pyridin-5-ylmethyl)-2-azaspiro[3.3]heptane-2-carbonyl]-2,5-diazaspiro[3.4]octan-6-one] is 1.9-fold lower in IC50: 171 nM for the first, 88.2 nM for the second. The second is the more potent here.

First: N=S(=O)(c1cc(F)cc(CC2CC3(C2)CN(C(=O)N2CC4(COCC(=O)N4)C2)C3)c1)C(F)(F)F (centres unmarked) [Example 322, 2-[6-[[3-fluoro-5-(trifluoromethylsulfoni-midoyl)phenyl]methyl]-2-azaspiro[3.3]heptane-2-carbonyl]-8-oxa-2,5-diazaspiro[3.5]nonan-6-one]
Second: CP(C)(=O)c1cc(F)cc(CC2CC3(C2)CN(C(=O)N2CC4(CCC(=O)N4)C2)C3)c1 [Example 339, 2-[6-(3-dimethylphosphoryl-5-fluoro-benzyl)-2-azaspiro[3.3]heptane-2-carbonyl]-2,5-diazaspiro[3.4]octan-6-one]
The IC50 of the first is 50-fold lower: 4.32 nM for the first, 215 nM for the second. The first is the more potent here.

Compared with `O=C1CCC2(CN(C(=O)N3CC4(CCC(Cc5nnc(C(F)(F)F)[nH]5)CC4)C3)C2)N1` [Example 323, 2-[7-[[5-(trifluoromethyl)-4H-1,2,4-triazol-3-yl]methyl]-2-azaspiro[3.5]nonane-2-carbonyl]-2,5-diazaspiro[3.4]octan-6-one], `O=C1CCC2(CN(C(=O)N3CC4(CC(Cc5n[nH]c(C(F)(F)F)n5)C4)C3)C2)N1` [Example 333, 2-[6-[[5-(trifluoromethyl)-1H-1,2,4-triazol-3-yl]methyl]-2-azaspiro[3.3]heptane-2-carbonyl]-2,5-diazaspiro[3.4]octan-6-one] is 520-fold higher in IC50: 0.17 nM for the first, 88.1 nM for the second.

First: O=C1CCC2(CN(C(=O)N3CC4(CC(Cc5cn(C6CC6)nc5C(F)(F)F)C4)C3)C2)N1 [Example 324]
Second: O=C1CCC2(CN(C(=O)N3CC4(CC(Cc5nsc(C(F)(F)F)n5)C4)C3)C2)N1 [Example 349, 2-[6-[[5-(trifluoromethyl)-1,2,4-thiadiazol-3-yl]methyl]-2-azaspiro[3.3]heptane-2-carbonyl]-2,5-diazaspiro[3.4]octan-6-one]
The IC50 of the first is 6.9-fold lower: 3.35 nM for the first, 23 nM for the second. The first is the more potent here.

Going from `Cn1ncc(C(F)(F)F)c1CN1CCC2(CC1)CN(C(=O)N1CC3(CCC(=O)N3)C1)C2` [Example 325, 2-[7-[[2-methyl-4-(trifluoromethyl)pyrazol-3-yl]methyl]-2,7-diazaspiro[3.5]nonane-2-carbonyl]-2,5-diazaspiro[3.4]octan-6-one] to `Cn1nc(C(F)(F)F)cc1CN1CCC2(CC1)CN(C(=O)N1CC3(CCC(=O)N3)C1)C2` [Example 337, 2-[7-[[2-methyl-5-(trifluoromethyl)pyrazol-3-yl]methyl]-2,7-diazaspiro[3.5]nonane-2-carbonyl]-2,5-diazaspiro[3.4]octan-6-one], the IC50 rises from 3.88 nM to 160 nM (41-fold).

First: Cc1cc(C(F)(F)F)nn1CC1CC2(C1)CN(C(=O)N1CC3(CCC(=O)N3)C1)C2 [Example 326, 2-[6-[[5-methyl-3-(trifluoromethyl)pyrazol-1-yl]methyl]-2-azaspiro[3.3]heptane-2-carbonyl]-2,5-diazaspiro[3.4]octan-6-one]
Second: Cc1cc(C(F)(F)F)n(CC2CC3(C2)CN(C(=O)N2CC4(CCC(=O)N4)C2)C3)n1 [Example 328, 2-[6-[[3-methyl-5-(trifluoromethyl)pyrazol-1-yl]methyl]-2-azaspiro[3.3]heptane-2-carbonyl]-2,5-diazaspiro[3.4]octan-6-one]
The IC50 of the first is 2.4-fold lower: 6.53 nM for the first, 15.9 nM for the second.

Compared with `O=C1CCC2(CN(C(=O)N3CC4(CC(Cc5nccc(C(F)(F)F)n5)C4)C3)C2)N1` [Example 327, 2-[6-[[4-(trifluoromethyl)pyrimi-din-2-yl]methyl]-2-azaspiro[3.3]heptane-2-carbonyl]-2,5-diazaspiro[3.4]octan-6-one], `O=C1CCC2(CN(C(=O)N3CC4(CC(Cc5cc(C(F)(F)F)c[nH]c5=O)C4)C3)C2)N1` [Example 329, 2-[6-[[2-keto-5-(trifluoromethyl)-1H-pyridin-3-yl]methyl]-2-azaspiro[3.3]heptane-2-carbonyl]-2,5-diazaspiro[3.4]octan-6-one] is 2.1-fold higher in IC50: 7.57 nM for the first, 16.1 nM for the second. The first is the more potent here.

`O=C1CCC2(CN(C(=O)N3CC4(CC(Cn5cnc(C6(C(F)(F)F)CC6)n5)C4)C3)C2)N1` [Example 330, 2-[6-[[3-[1-(trifluoromethyl)cyclopro-pyl]-1,2,4-triazol-1-yl]methyl]-2-azaspiro[3.3]heptane-2-carbonyl]-2,5-diazaspiro[3.4]octan-6-one] and `Cc1cc(C(F)F)n(CC2CC3(C2)CN(C(=O)N2CC4(CCC(=O)N4)C2)C3)n1` [Example 346, 2-[6-[[5-(difluoromethyl)-3-methyl-pyrazol-1-yl]methyl]-2-azaspiro[3.3]heptane-2-carbonyl]-2,5-diazaspiro[3.4]octan-6-one] are within 1.5-fold of each other in IC50: 24.6 nM for the first, 29.1 nM for the second.

Going from `CC(C)(C)c1ncc(CN2CC3(C2)CN(C(=O)N2CC4(CCC(=O)N4)C2)C3)s1` [Example 331, 2-[6-[(2-tert-butylthiazol-5-yl)methyl]-2,6-diazaspiro[3.3]heptane-2-carbonyl]-2,5-diazaspiro[3.4]octan-6-one] to `Cc1sc(CN2CC3(C2)CN(C(=O)N2CC4(CCC(=O)N4)C2)C3)nc1C(F)(F)F` [Example 341, 2-[6-[[5-methyl-4-(trifluoromethyl)thiazol-2-yl]methyl]-2,6-diazaspiro[3.3]heptane-2-carbonyl]-2,5-diazaspiro[3.4]octan-6-one], the IC50 rises from 45.2 nM to 730 nM (16-fold). The first is the more potent here.

Compared with `O=C1CCC2(CN(C(=O)N3CC4(CCN(Cc5cc(C(F)(F)F)sn5)CC4)C3)C2)N1` [Example 332, 2-[7-[[5-(trifluoromethyl)isothia-zol-3-yl]methyl]-2,7-diazaspiro[3.5]nonane-2-carbonyl]-2,5-diazaspiro[3.4]octan-6-one], `O=C1CCC2(CN(C(=O)N3CC4(CCN(Cc5cc(C(F)(F)F)[nH]n5)CC4)C3)C2)N1` [Example 350, 2-[7-[[5-(trifluoromethyl)-1H-pyrazol-3-yl]methyl]-2,7-diazaspiro[3.5]nonane-2-carbonyl]-2,5-diazaspiro[3.4]octan-6-one] is 3.1-fold higher in IC50: 52.7 nM for the first, 165 nM for the second. The first is the more potent here.

Compared with `O=C1CCC2(CN(C(=O)N3CC4(CN(Cc5snnc5C5CCC5)C4)C3)C2)N1` [Example 334, 2-[6-[(4-cyclobutylthiadiazol-5-yl)methyl]-2,6-diazaspiro[3.3]heptane-2-carbonyl]-2,5-diazaspiro[3.4]octan-6-one], `O=C1CCC2(CN(C(=O)N3CC4(CN(Cc5snnc5C5CC5)C4)C3)C2)N1` [Example 345, 2-[6-[(4-cyclopropylthiadiazol-5-yl)methyl]-2,6-diazaspiro[3.3]heptane-2-carbonyl]-2,5-diazaspiro[3.4]octan-6-one] is 38-fold higher in IC50: 88.2 nM for the first, 3330 nM for the second.

Going from `N=S(=O)(c1ccc(OC2CC3(C2)CN(C(=O)N2CC4(CCC(=O)N4)C2)C3)cc1)C(F)(F)F` (centres unmarked) [Example 335] to `Cn1cc(OC2CC3(C2)CN(C(=O)N2CC4(CCC(=O)N4)C2)C3)cn1` [Example 344, 2-[6-(1-methylpyrazol-4-yl)oxy-2-azaspiro[3.3]heptane-2-carbonyl]-2,5-diazaspiro[3.4]octan-6-one], the IC50 rises from 101 nM to 2450 nM (24-fold).

Compared with `CP(C)(=O)c1ccc(CC2CC3(C2)CN(C(=O)N2CC4(CCC(=O)N4)C2)C3)c(F)c1` [Example 336, 2-[6-(4-dimethylphosphoryl-2-fluoro-benzyl)-2-azaspiro[3.3]heptane-2-carbonyl]-2,5-diazaspiro[3.4]octan-6-one], `Cc1cc(C(F)F)nn1CC1CC2(C1)CN(C(=O)N1CC3(CCC(=O)N3)C1)C2` [Example 347, 2-[6-[[3-(difluoromethyl)-5-methyl-pyrazol-1-yl]methyl]-2-azaspiro[3.3]heptane-2-carbonyl]-2,5-diazaspiro[3.4]octan-6-one] is 18-fold lower in IC50: 146 nM for the first, 8.19 nM for the second. The second is the more potent here.

First: O=C1CCC2(CN(C(=O)N3CC4(CCN(Cc5cc(C(F)(F)F)on5)CC4)C3)C2)N1 [Example 338, 2-[7-[[5-(trifluoromethyl)isoxazol-3-yl]methyl]-2,7-diazaspiro[3.5]nonane-2-carbonyl]-2,5-diazaspiro[3.4]octan-6-one]
Second: O=C1CCC2(CN(C(=O)N3CC4(CCN(Cc5ncc(C(F)F)s5)CC4)C3)C2)N1 [Example 348, 2-[7-[[5-(difluoromethyl)thiazol-2-yl]methyl]-2,7-diazaspiro[3.5]nonane-2-carbonyl]-2,5-diazaspiro[3.4]octan-6-one]
The IC50 of the first is 2-fold higher: 178 nM for the first, 90.9 nM for the second.

Going from `O=C1CCC2(CN(C(=O)N3CC4(CN(Cc5nc(C6CC6)ns5)C4)C3)C2)N1` [Example 340, 2-[6-[(3-cyclopropyl-1,2,4-thiadiazol-5-yl)methyl]-2,6-diazaspiro[3.4]heptane-2-carbonyl]-2,5-diazaspiro[3.4]octan-6-one] to `O=C1CCC2(CN(C(=O)N3CC4(CN(Cc5nnc(C(F)(F)F)s5)C4)C3)C2)N1` [Example 342, 2-[6-[[5-(trifluoromethyl)-1,3,4-thiadiazol-2-yl]methyl]-2,6-diazaspiro[3.3]heptane-2-carbonyl]-2,5-diazaspiro[3.4]octan-6-one], the IC50 rises from 428 nM to 1600 nM (3.7-fold).

First: Cc1nc(C(F)(F)F)c(CN2CC3(C2)CN(C(=O)N2CC4(CCC(=O)N4)C2)C3)s1 [Example 343, 2-[6-[[2-methyl-4-(trifluoromethyl)thiazol-5-yl]methyl]-2,6-diazaspiro[3.4]heptane-2-carbonyl]-2,5-diazaspiro[3.4]octan-6-one]
Second: O=C1NC2(CO1)CN(C(=O)N1CC3(CC(Cc4nc(C(F)(F)F)cs4)C3)C1)C2 [Example 351, 2-[6-[[4-(trifluoromethyl)thiazol-2-yl]methyl]-2-azaspiro[3.3]heptane-2-carbonyl]-7-oxa-2,5-diazaspiro[3.4]octan-6-one]
The IC50 of the first is 4900-fold higher: 1800 nM for the first, 0.37 nM for the second.
